Activity calls are given as the source filed them. No cut-off for these calls is given here.
Columns and labels:
MOLM-13 [1] = experiment: Cell cycle arrest in human MOLM-13 cells assessed as accumulation at S phase at 10 uM measured after 72 hrs by propidium iodide/RNaseA staining based flow cytometry analysis (reference value: 11.14 %); type: functional
[2] = biological target: Receptor-type tyrosine-protein kinase FLT3 (Homo sapiens) (UniProt P36888); experiment: Inhibition of recombinant His-tagged human FLT3 (564 to 958 residues) expressed in baculovirus expression system at 10 uM using tyr 02 as substrate incubated for 1 hr by Z'-LYTE assay relative to control
MV4-11 [3] = experiment: Cell cycle arrest in human MV4-11 cells assessed as accumulation at sub-G1 phase at 30 uM measured after 72 hrs by propidium iodide/RNaseA staining based flow cytometry analysis (reference value: 7.43 %); type: functional
MOLM-13 [4] = experiment: Cell cycle arrest in human MOLM-13 cells assessed as accumulation at G2/M phase at 30 uM measured after 72 hrs by propidium iodide/RNaseA staining based flow cytometry analysis (reference value: 20.36 %); type: functional
MOLM-13 [5] = experiment: Cell cycle arrest in human MOLM-13 cells assessed as accumulation at G0/G1 phase at 0.3 uM measured after 72 hrs by propidium iodide/RNaseA staining based flow cytometry analysis (reference value: 53.92 %); type: functional
MV4-11 [6] = experiment: Cell cycle arrest in human MV4-11 cells assessed as accumulation at G0/G1 phase at 30 uM measured after 72 hrs by propidium iodide/RNaseA staining based flow cytometry analysis (reference value: 50.06 %); type: functional
MV4-11 [7] = experiment: Cell cycle arrest in human MV4-11 cells assessed as increase in accumulation at sub-G1 phase at 30 uM measured after 72 hrs by propidium iodide/RNaseA staining based flow cytometry analysis; type: functional
MOLM-13 [8] = experiment: Cell cycle arrest in human MOLM-13 cells assessed as accumulation at S phase at 0.3 uM measured after 72 hrs by propidium iodide/RNaseA staining based flow cytometry analysis (reference value: 11.14 %); type: functional
MV4-11 [9] = experiment: Cell cycle arrest in human MV4-11 cells assessed as accumulation at G2/M phase at 10 uM measured after 72 hrs by propidium iodide/RNaseA staining based flow cytometry analysis (reference value: 26.26 %); type: functional
MOLM-13 [10] = experiment: Cell cycle arrest in human MOLM-13 cells assessed as accumulation at G0/G1 phase at 30 uM measured after 72 hrs by propidium iodide/RNaseA staining based flow cytometry analysis (reference value: 53.92 %); type: functional
MV4-11 [11] = experiment: Cell cycle arrest in human MV4-11 cells assessed as accumulation at sub-G1 phase at 3 uM measured after 72 hrs by propidium iodide/RNaseA staining based flow cytometry analysis (reference value: 7.43 %); type: functional
MV4-11 [12] = experiment: Cell cycle arrest in human MV4-11 cells assessed as accumulation at G2/M phase at 3 uM measured after 72 hrs by propidium iodide/RNaseA staining based flow cytometry analysis (reference value: 26.26 %); type: functional
MOLM-13 [13] = experiment: Cytotoxicity against human MOLM-13 cells assessed as reduction in cell viability measured after 72 hrs by MTT assay; type: functional, cell-based; details: MOLM-13, 72 h
MOLM-13 [14] = experiment: Cell cycle arrest in human MOLM-13 cells assessed as accumulation at G0/G1 phase at 0.3 to 3 uM measured after 72 hrs by propidium iodide/RNaseA staining based flow cytometry analysis; type: functional; details: dose 0.3-3 µM
MV4-11 [15] = experiment: Cell cycle arrest in human MV4-11 cells assessed as accumulation at sub-G1 phase at 0.3 uM measured after 72 hrs by propidium iodide/RNaseA staining based flow cytometry analysis (reference value: 7.43 %); type: functional
MV4-11 [16] = experiment: Cell cycle arrest in human MV4-11 cells assessed as accumulation at S phase at 30 uM measured after 72 hrs by propidium iodide/RNaseA staining based flow cytometry analysis (reference value: 17.51 %); type: functional
MOLM-13 [17] = experiment: Cell cycle arrest in human MOLM-13 cells assessed as accumulation at G2/M phase at 3 uM measured after 72 hrs by propidium iodide/RNaseA staining based flow cytometry analysis (reference value: 20.36 %); type: functional
MOLM-13 [18] = experiment: Cell cycle arrest in human MOLM-13 cells assessed as accumulation at sub-G1 phase at 10 uM measured after 72 hrs by propidium iodide/RNaseA staining based flow cytometry analysis (reference value: 13.76 %); type: functional
MV4-11 [19] = experiment: Cell cycle arrest in human MV4-11 cells assessed as accumulation at S phase at 3 uM measured after 72 hrs by propidium iodide/RNaseA staining based flow cytometry analysis (reference value: 17.51 %); type: functional
MOLM-13 [20] = experiment: Cell cycle arrest in human MOLM-13 cells assessed as accumulation at G0/G1 phase at 10 uM measured after 72 hrs by propidium iodide/RNaseA staining based flow cytometry analysis (reference value: 53.92 %); type: functional
MV4-11 [21] = experiment: Cell cycle arrest in human MV4-11 cells assessed as accumulation at sub-G1 phase at 10 uM measured after 72 hrs by propidium iodide/RNaseA staining based flow cytometry analysis (reference value: 7.43 %); type: functional
MOLM-13 [22] = experiment: Cell cycle arrest in human MOLM-13 cells assessed as accumulation at sub-G1 phase at 30 uM measured after 72 hrs by propidium iodide/RNaseA staining based flow cytometry analysis (reference value: 13.76 %); type: functional
MV4-11 [23] = experiment: Cell cycle arrest in human MV4-11 cells assessed as accumulation at G0/G1 phase at 3 uM measured after 72 hrs by propidium iodide/RNaseA staining based flow cytometry analysis (reference value: 50.06 %); type: functional
MOLM-13 [24] = experiment: Cell cycle arrest in human MOLM-13 cells assessed as accumulation at G0/G1 phase at 3 uM measured after 72 hrs by propidium iodide/RNaseA staining based flow cytometry analysis (reference value: 53.92 %); type: functional
MOLM-13 [25] = experiment: Cell cycle arrest in human MOLM-13 cells assessed as accumulation at G2/M phase at 10 uM measured after 72 hrs by propidium iodide/RNaseA staining based flow cytometry analysis (reference value: 20.36 %); type: functional
MV4-11 [26] = experiment: Cell cycle arrest in human MV4-11 cells assessed as accumulation at S phase at 0.3 uM measured after 72 hrs by propidium iodide/RNaseA staining based flow cytometry analysis (reference value: 17.51 %); type: functional
MV4-11 [27] = experiment: Cytotoxicity against human MV4-11 cells assessed as reduction in cell viability measured after 72 hrs by MTT assay; type: functional, cell-based; details: MV4-11, 72 h
MOLM-13 [28] = experiment: Cell cycle arrest in human MOLM-13 cells assessed as accumulation at S phase at 30 uM measured after 72 hrs by propidium iodide/RNaseA staining based flow cytometry analysis (reference value: 11.14 %); type: functional
[29] = biological target: T1, Receptor-type tyrosine-protein kinase FLT3 (Homo sapiens, UniProt P36888); experiment: Inhibition of recombinant His-tagged human FLT3 (564 to 958 residues) expressed in baculovirus expression system using tyr 02 as substrate incubated for 1 hr by Z'-LYTE assay
T1 sequence (P36888 whole entry): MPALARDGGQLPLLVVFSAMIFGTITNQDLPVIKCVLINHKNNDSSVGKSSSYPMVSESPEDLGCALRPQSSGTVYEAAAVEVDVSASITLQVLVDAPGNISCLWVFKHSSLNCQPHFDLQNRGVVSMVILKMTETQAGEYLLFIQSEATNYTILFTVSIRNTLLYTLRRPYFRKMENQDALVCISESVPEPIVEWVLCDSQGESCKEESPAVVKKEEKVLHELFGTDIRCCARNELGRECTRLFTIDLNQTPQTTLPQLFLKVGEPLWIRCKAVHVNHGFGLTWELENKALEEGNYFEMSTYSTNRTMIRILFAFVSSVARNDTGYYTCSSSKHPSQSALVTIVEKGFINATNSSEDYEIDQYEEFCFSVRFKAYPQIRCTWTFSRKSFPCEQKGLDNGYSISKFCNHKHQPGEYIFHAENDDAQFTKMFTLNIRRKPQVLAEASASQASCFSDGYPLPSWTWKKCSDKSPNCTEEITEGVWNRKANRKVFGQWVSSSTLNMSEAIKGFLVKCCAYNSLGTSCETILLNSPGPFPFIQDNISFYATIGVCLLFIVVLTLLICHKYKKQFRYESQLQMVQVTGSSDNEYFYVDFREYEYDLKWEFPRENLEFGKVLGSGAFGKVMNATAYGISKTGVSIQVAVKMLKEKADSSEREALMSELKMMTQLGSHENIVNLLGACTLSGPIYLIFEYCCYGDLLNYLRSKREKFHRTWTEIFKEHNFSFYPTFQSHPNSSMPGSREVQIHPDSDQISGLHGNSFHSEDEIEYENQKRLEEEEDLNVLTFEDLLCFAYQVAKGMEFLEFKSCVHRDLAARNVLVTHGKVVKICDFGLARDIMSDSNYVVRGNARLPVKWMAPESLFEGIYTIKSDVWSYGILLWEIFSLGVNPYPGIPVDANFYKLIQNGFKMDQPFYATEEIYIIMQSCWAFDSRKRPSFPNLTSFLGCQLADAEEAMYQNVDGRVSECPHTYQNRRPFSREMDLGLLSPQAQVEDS

MV4-11 [30] = experiment: Cell cycle arrest in human MV4-11 cells assessed as accumulation at G0/G1 phase at 0.3 uM measured after 72 hrs by propidium iodide/RNaseA staining based flow cytometry analysis (reference value: 50.06 %); type: functional
MOLM-13 [31] = experiment: Cell cycle arrest in human MOLM-13 cells assessed as accumulation at G2/M phase at 0.3 uM measured after 72 hrs by propidium iodide/RNaseA staining based flow cytometry analysis (reference value: 20.36 %); type: functional
MV4-11 [32] = experiment: Cell cycle arrest in human MV4-11 cells assessed as accumulation at S phase at 10 uM measured after 72 hrs by propidium iodide/RNaseA staining based flow cytometry analysis (reference value: 17.51 %); type: functional
MOLM-13 [33] = experiment: Cell cycle arrest in human MOLM-13 cells assessed as accumulation at S phase at 3 uM measured after 72 hrs by propidium iodide/RNaseA staining based flow cytometry analysis (reference value: 11.14 %); type: functional
[34] = biological target: Receptor-type tyrosine-protein kinase FLT3 (Homo sapiens, UniProt P36888, ITD); experiment: Inhibition of recombinant N-terminal GST/His6-tagged human FLT3 ITD mutant (571 to 993 residues) expressed in Sf9 insect cells incubated for 1 hr by LanthaScreen assay
MV4-11 [35] = experiment: Cell cycle arrest in human MV4-11 cells assessed as accumulation at G2/M phase at 30 uM measured after 72 hrs by propidium iodide/RNaseA staining based flow cytometry analysis (reference value: 26.26 %); type: functional
MV4-11 [36] = experiment: Cell cycle arrest in human MV4-11 cells assessed as accumulation at G2/M phase at 0.3 uM measured after 72 hrs by propidium iodide/RNaseA staining based flow cytometry analysis (reference value: 26.26 %); type: functional
MV4-11 [37] = experiment: Cell cycle arrest in human MV4-11 cells assessed as accumulation at G0/G1 phase at 10 uM measured after 72 hrs by propidium iodide/RNaseA staining based flow cytometry analysis (reference value: 50.06 %); type: functional
MOLM-13 [38] = experiment: Cell cycle arrest in human MOLM-13 cells assessed as accumulation at sub-G1 phase at 0.3 uM measured after 72 hrs by propidium iodide/RNaseA staining based flow cytometry analysis (reference value: 13.76 %); type: functional
[39] = biological target: Receptor-type tyrosine-protein kinase FLT3 (Homo sapiens, UniProt P36888, D835Y); experiment: Inhibition of recombinant His-tagged human FLT3 D835Y mutant (564 to 958 residues) expressed in baculovirus expression system using tyr 02 as substrate incubated for 1 hr by Z'-LYTE assay
MOLM-13 [40] = experiment: Cell cycle arrest in human MOLM-13 cells assessed as accumulation at sub-G1 phase at 3 uM measured after 72 hrs by propidium iodide/RNaseA staining based flow cytometry analysis (reference value: 13.76 %); type: functional

Structure (SMILES): COc1ccc(-c2cc(=O)c3c(O)c(OC)c(OC)cc3o2)cc1 [SALVIGENIN]
- Activity (MOLM-13 [1]): 5.4%
- inhibition [2]: > 80%
- Activity (MV4-11 [3]): 9.4%
- Activity (MOLM-13 [4]): 11.69%
- Activity (MOLM-13 [5]): 59.22%
- Activity (MV4-11 [6]): 73.88%
- Activity (MV4-11 [7]): Active
- Activity (MOLM-13 [8]): 10.48%
- Activity (MV4-11 [9]): 10.19%
- Activity (MOLM-13 [10]): 40.99%
- Activity (MV4-11 [11]): 6.83%
- Activity (MV4-11 [12]): 14.37%
- IC50 (MOLM-13 [13]): 2.6 µM
- Activity (MOLM-13 [14]): Active
- Activity (MV4-11 [15]): 6.78%
- Activity (MV4-11 [16]): 5.91%
- Activity (MOLM-13 [17]): 15.19%
- Activity (MOLM-13 [18]): 40.89%
- Activity (MV4-11 [19]): 8.74%
- Activity (MOLM-13 [20]): 42.74%
- Activity (MV4-11 [21]): 14.62%
- Activity (MOLM-13 [22]): 43.19%
- Activity (MV4-11 [23]): 70.55%
- Activity (MOLM-13 [24]): 59.78%
- Activity (MOLM-13 [25]): 11.15%
- Activity (MV4-11 [26]): 20.59%
- IC50 (MV4-11 [27]): 2.6 µM
- Activity (MOLM-13 [28]): 4.05%
- IC50 [29]: 550 nM
- Activity (MV4-11 [30]): 50.11%
- Activity (MOLM-13 [31]): 20.25%
- Activity (MV4-11 [32]): 6.62%
- Activity (MOLM-13 [33]): 5.26%
- IC50 [34]: 580 nM
- Activity (MV4-11 [35]): 11.25%
- Activity (MV4-11 [36]): 25.07%
- Activity (MV4-11 [37]): 69.17%
- Activity (MOLM-13 [38]): 9.93%
- IC50 [39]: 290 nM
- Activity (MOLM-13 [40]): 19.21%

Structure (SMILES): COc1c(O)cc2oc(-c3ccc(O)cc3)cc(=O)c2c1O [HISPIDULIN]
- inhibition [2]: > 80%
- Activity (MV4-11 [7]): Active
- IC50 (MOLM-13 [13]): 7 µM
- Activity (MOLM-13 [14]): Active
- IC50 (MV4-11 [27]): 6.8 µM
- IC50 [29]: 440 nM
- IC50 [34]: 390 nM
- IC50 [39]: 230 nM

Structure (SMILES): COc1ccc(-c2cc(=O)c3c(O)c(OC)c(O)cc3o2)cc1 [PECTOLINARIGENIN]
- inhibition [2]: > 80%
- IC50 (MOLM-13 [13]): 5.9 µM
- IC50 (MV4-11 [27]): 7.9 µM
- IC50 [29]: 650 nM
- IC50 [34]: 880 nM
- IC50 [39]: 580 nM

From ChEMBL document CHEMBL4813934, “Investigation of Selected Flavonoid Derivatives as Potent FLT3 Inhibitors for the Potential Treatment of Acute Myeloid Leukemia” (J Nat Prod, 2021)
